Reference: patent publication US20210015749A1, “NANOCOCHLEATE FORMULATION AND METHOD OF PREPARING THE NANOCOCHLEATE FORMULATION” (priority 2019, published 2021)

System: glucocorticoid-treated rats
Assay: Biochemical tests of serum bone parameters in treatment groups of osteoporotic (prednisolone) rats
Assay type: in vivo, rat
[1] = serum, * = significant difference with prednisolone group

## Vitamin D
Serum phosphorus
  Ph: 7.525 ± 0.4272
[1]
  Bone-ALP: 312 ± 24.42
  Ca: 9.367 ± 0.3786
  OPG: 3.325 ± .9012
  Osteocalcin: 16.5 ± 2.121
